Measurements taken from ChEMBL document CHEMBL1140015, “Pyrazolone methylamino piperidine derivatives as novel CCR3 antagonists” (Bioorg Med Chem Lett, 2007).
Converted amounts (≈) assume the structure as drawn.

How the values were obtained:
[1] = molecular target: T1, C-C chemokine receptor type 3 (Homo sapiens, UniProt P51677); assay: Displacement of [125I]eotaxin from CCR3 receptor in human eosinophils
T1 sequence (P51677 whole entry): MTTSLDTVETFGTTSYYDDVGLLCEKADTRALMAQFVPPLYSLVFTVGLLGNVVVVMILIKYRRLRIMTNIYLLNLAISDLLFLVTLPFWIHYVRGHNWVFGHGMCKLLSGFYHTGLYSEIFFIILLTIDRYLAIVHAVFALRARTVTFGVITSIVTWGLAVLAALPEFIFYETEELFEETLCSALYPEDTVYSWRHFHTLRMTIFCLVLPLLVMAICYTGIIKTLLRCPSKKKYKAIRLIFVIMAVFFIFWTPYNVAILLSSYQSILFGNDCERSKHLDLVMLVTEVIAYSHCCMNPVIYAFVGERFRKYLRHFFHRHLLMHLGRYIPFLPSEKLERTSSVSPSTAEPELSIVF

Hepatocyte [2] = assay: Metabolic stability in rat hepatocytes after 2 hrs; assay type: ADME, cell-based
[3] = Metabolic stability in rat liver microsomes assessed as intrinsic clearance; assay type: ADME, Microsome
Hepatocyte [4] = assay: Metabolic stability in rat hepatocytes after 19 hrs; assay type: ADME, cell-based
[5] = Solubility in water at pH 7.4
[6] = Permeability from apical to basolateral side of Caco-2 cell membrane; conditions: human
[7] = molecular target: T1, C-C chemokine receptor type 3; assay: Antagonist activity at human CCR3 receptor assessed as inhibition of calcium flux; assay type: functional

SMILES	IC50 [1]	Stability (Hepatocyte [2])	microsomal CLint [3]	Stability (Hepatocyte [4])	solubility [5]	Papp A→B [6]	IC50 [7]
Cc1c(CN(CCc2ccccn2)C2CCN(C(=O)c3c(F)cccc3F)CC2)c(=O)n(-c2ccc(F)cc2)n1C	1000 nM	35%	82 µL/min/mg	78%			
Cc1c(CN(CCc2ccc(Cl)cc2)C2CCN(C(=O)c3c(F)cccc3F)CC2)c(=O)n(-c2ccccc2F)n1C	40 nM						
Cc1c(CN(CCc2ccc(Cl)cc2)C2CCN(C(=O)c3c(F)cccc3F)CC2)c(=O)n(-c2cnccc2Cl)n1C	100 nM						
Cc1c(CN(CCc2ccc(Cl)cc2)C2CCN(C(=O)c3c(F)cccc3F)CC2)c(=O)n(-c2ccccn2)n1C	25 nM						
Cc1c(CN(CCc2ccc(Cl)cc2)C2CCN(C(=O)c3cccc[n+]3[O-])CC2)c(=O)n(-c2ccc(F)cc2)n1C	200 nM	15%	< 50 µL/min/mg	55%	> 2000 µg/mL	1.3 ×10⁻⁶ cm/s	
Cc1c(CN(CCCCc2ccccc2)C2CCN(C(=O)c3cccc4ccccc34)CC2)c(=O)n(-c2ccccc2)n1C	158 nM						
COc1ccncc1-n1c(=O)c(CN(CCc2ccc(Cl)cc2)C2CCN(C(=O)c3c(F)cccc3F)CC2)c(C)n1C	250 nM						
Cc1c(CN(CCc2ccc([N+](=O)[O-])cc2)C2CCN(C(=O)c3ccccn3)CC2)c(=O)n(-c2ccc(F)cc2)n1C	12 nM	29%	62 µL/min/mg	82%	1260 µg/mL (≈ 2200 µM)	7.8 ×10⁻⁶ cm/s	
Cc1c(CN(CCc2cccnc2)C2CCN(C(=O)c3c(F)cccc3F)CC2)c(=O)n(-c2ccc(F)cc2)n1C	2500 nM		113 µL/min/mg		> 2000 µg/mL		
Cc1c(CN(CCc2ccc(S(N)(=O)=O)cc2)C2CCN(C(=O)c3c(F)cccc3F)CC2)c(=O)n(-c2ccc(F)cc2)n1C	> 10000 nM	43%	< 50 µL/min/mg	86%	400 µg/mL (≈ 623 µM)	< 1 ×10⁻⁶ cm/s	
Cc1ccc(C(=O)N2CCC(N(CCc3ccc([N+](=O)[O-])cc3)Cc3c(C)n(C)n(-c4ccc(F)cc4)c3=O)CC2)c(C)n1	12 nM	38%	79 µL/min/mg	94%	1200 µg/mL (≈ 2000 µM)		
Cc1c(CN(CCc2ccc(Cl)cc2)C2CCN(C(=O)c3c(F)cccc3F)CC2)c(=O)n(C2CCCCC2)n1C	100 nM						

Now from value to molecule:

IC50 [1]	Stability (Hepatocyte [2])	microsomal CLint [3]	Stability (Hepatocyte [4])	solubility [5]	Papp A→B [6]	IC50 [7]	SMILES
100 nM							Cc1c(CN(CCc2ccc(Cl)cc2)C2CCN(C(=O)c3c(F)cccc3F)CC2)c(=O)n(-c2cccc(F)c2)n1C
100 nM							Cc1c(CN(CCc2ccc(Cl)cc2)C2CCN(C(=O)c3c(F)cccc3F)CC2)c(=O)n(-c2ccc([N+](=O)[O-])cc2)n1C
158 nM							Cc1c(CN(CCc2ccc(Cl)cc2)C2CCN(C(=O)c3c(F)cccc3F)CC2)c(=O)n(-c2ccc(C#N)cc2)n1C
100 nM							COc1ccc(-n2c(=O)c(CN(CCc3ccc(Cl)cc3)C3CCN(C(=O)c4c(F)cccc4F)CC3)c(C)n2C)cc1
2500 nM							Cc1c(CN(CCc2ccc(Cl)cc2)C2CCN(C(=O)c3c(F)cccc3F)CC2)c(=O)n(-c2ccc(C(=O)O)cc2)n1C
200 nM		303 µL/min/mg		100 µg/mL (≈ 172 µM)			Cc1c(CN(CCc2ccc(F)cc2)C2CCN(C(=O)c3c(F)cccc3F)CC2)c(=O)n(-c2ccc(F)cc2)n1C
2500 nM	23%	< 50 µL/min/mg	71%	900 µg/mL (≈ 1560 µM)	< 1 ×10⁻⁶ cm/s		Cc1c(CN(CCc2ccc(N)cc2)C2CCN(C(=O)c3c(F)cccc3F)CC2)c(=O)n(-c2ccc(F)cc2)n1C
100 nM							Cc1c(CN(CCc2ccc(Cl)cc2)C2CCN(C(=O)c3c(F)cccc3F)CC2)c(=O)n(-c2ccc(O)cc2)n1C
79 nM							Cc1c(CN(CCc2ccc(Cl)cc2)C2CCN(C(=O)c3c(F)cccc3F)CC2)c(=O)n(-c2ccc(N)cc2)n1C
100 nM							Cc1c(CN(CCc2ccc(Cl)cc2)C2CCN(C(=O)c3c(F)cccc3F)CC2)c(=O)n(-c2ccc(N(C)C)cc2)n1C
400 nM							CC(=O)Nc1ccc(-n2c(=O)c(CN(CCc3ccc(Cl)cc3)C3CCN(C(=O)c4c(F)cccc4F)CC3)c(C)n2C)cc1
20 nM	52%	472 µL/min/mg	95%	1 µg/mL (≈ 1.67 µM)	8.1 ×10⁻⁶ cm/s	16 nM	Cc1c(CN(CCc2ccc(Cl)cc2)C2CCN(C(=O)c3c(F)cccc3F)CC2)c(=O)n(-c2ccc(F)cc2)n1C
6.3 nM	35%	235 µL/min/mg	95%	100 µg/mL (≈ 165 µM)			Cc1c(CN(CCc2ccc([N+](=O)[O-])cc2)C2CCN(C(=O)c3c(F)cccc3F)CC2)c(=O)n(-c2ccc(F)cc2)n1C
32 nM							Cc1c(CN(CCc2ccc(Cl)cc2)C2CCN(C(=O)c3c(F)cccc3F)CC2)c(=O)n(-c2ccccc2)n1C
63 nM							Cc1c(CN(CCc2ccc(Cl)cc2)C2CCN(C(=O)c3c(F)cccc3F)CC2)c(=O)n(-c2ccc(Cl)cc2)n1C
